Laboratory results as given in patent US20230063321A1, “Methods for Treating Inflammatory Bowel Diseases with alpha4beta7 Integrin Antagonists” (Protagonist Therapeutics, Inc., priority 2020, published 2023).
Values joined by “and” are separate entries in the source; they are usually repeats but may differ in a detail not shown here. Equal entries are not always repeated. Numbered stars: 1 amine (or outer) side, 2 acyl side, 3 side chain; on linkers, the order of the positions; unused ones are H or OH. Bridge positions count the residues as written; N and C are the ends. Square brackets hold non-standard residues; d marks the D form. Peptide text beside a SMILES is read from it. I, II: the chains in the order shown. ξ: configuration not given here. Phe(4-tBu) = CC(C)(C)c1ccc(C[C@H](N)C(=O)O)cc1; Diglycolyl = O=C(COCC(=O)[*:2])[*:1]; NMeR = CN[C@@H](CCCNC(=N)N)C(=O)O; β3hE = N[C@@H](CCC(=O)O)CC(=O)O; Thr(3ξ) = CC(O)[C@H](N)C(=O)O; X1 = O=C(c1ccccc1C[*:2])[*:1]; Pen = CC(C)(S)[C@H](N)C(=O)O

Target: T1, α4β7 integrin on memory CD4+ T cells (Homo sapiens, UniProt P13612+P26010)
T1 construct: the amount of α4β7 expression on the cell surface of circulating lymphocytes; endogenous in cells; host or cells: heparinized whole blood of healthy volunteers
T1 sequence (P13612 34-1032): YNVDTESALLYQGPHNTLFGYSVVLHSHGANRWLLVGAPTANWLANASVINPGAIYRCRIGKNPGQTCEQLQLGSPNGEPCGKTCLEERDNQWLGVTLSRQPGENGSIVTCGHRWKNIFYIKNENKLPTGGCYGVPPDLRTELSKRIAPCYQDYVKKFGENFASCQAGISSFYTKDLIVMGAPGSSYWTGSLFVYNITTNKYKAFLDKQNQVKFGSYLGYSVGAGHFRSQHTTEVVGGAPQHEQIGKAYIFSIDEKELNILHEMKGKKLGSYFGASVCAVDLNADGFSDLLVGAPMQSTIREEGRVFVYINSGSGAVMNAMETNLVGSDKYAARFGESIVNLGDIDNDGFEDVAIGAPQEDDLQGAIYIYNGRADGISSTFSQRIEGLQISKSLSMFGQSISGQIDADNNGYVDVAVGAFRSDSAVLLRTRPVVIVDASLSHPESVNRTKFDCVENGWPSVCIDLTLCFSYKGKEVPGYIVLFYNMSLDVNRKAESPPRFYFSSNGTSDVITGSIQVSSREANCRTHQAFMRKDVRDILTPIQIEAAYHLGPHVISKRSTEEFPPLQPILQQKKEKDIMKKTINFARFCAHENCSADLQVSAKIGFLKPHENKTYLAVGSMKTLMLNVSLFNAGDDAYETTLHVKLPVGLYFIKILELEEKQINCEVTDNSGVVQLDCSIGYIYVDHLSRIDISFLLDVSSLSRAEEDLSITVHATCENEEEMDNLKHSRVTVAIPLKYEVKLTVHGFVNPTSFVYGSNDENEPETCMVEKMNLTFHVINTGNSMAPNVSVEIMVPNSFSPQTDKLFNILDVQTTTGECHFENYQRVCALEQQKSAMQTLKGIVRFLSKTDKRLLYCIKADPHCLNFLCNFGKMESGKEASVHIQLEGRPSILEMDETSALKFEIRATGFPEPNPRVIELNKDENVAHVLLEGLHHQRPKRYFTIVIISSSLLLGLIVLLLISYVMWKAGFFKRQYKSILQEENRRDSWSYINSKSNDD
T1 sequence (P26010 20-798): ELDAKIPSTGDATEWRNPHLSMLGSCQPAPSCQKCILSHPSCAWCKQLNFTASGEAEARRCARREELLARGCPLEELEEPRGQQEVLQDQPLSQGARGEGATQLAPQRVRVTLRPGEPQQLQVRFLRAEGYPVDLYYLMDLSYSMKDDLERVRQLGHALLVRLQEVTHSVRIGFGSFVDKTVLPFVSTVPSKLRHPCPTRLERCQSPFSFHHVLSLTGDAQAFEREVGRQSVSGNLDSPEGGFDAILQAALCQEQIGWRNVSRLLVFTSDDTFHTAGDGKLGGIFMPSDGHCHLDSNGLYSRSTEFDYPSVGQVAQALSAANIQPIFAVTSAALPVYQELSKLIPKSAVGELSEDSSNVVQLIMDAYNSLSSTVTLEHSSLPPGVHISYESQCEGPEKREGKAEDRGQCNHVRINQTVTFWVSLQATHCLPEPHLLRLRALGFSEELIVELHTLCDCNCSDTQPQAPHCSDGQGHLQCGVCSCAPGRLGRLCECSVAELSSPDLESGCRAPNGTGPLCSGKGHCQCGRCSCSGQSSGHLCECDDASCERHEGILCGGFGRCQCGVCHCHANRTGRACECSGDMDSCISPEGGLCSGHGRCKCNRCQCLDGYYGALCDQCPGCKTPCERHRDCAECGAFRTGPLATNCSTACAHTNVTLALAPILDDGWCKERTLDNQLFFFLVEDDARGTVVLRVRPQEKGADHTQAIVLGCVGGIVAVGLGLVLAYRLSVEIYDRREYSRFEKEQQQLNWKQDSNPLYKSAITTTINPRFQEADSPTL
Assay: Study 1 blood α4β7 receptor occupancy and receptor expression
Assay type: in vivo
Conditions: for Average RE (%) / Average RO (%) / REmax (%) / ROmax (%) / Tmax for RE / Tmax for RO: Mean ± SD
Protocol: After staining is completed, the samples are treated with a red blood cell lysis and fixation buffer, washed and acquired on a flow cytometer. To quantify receptor occupancy on α4β7 expressing memory CD4 T cells, the […] fluorescence intensity (MFI) of Alexa647-labelled peptide within the vedolizumab+ memory CD4+ T cells was used. Receptor occupancy was calculated according to the following formula: [Percent RO]=(1−([Unblocked]−[Blocked])/([Baseline Unblocked]−[Baseline Blocked]))×100.
Expression of α4β7 is defined by MFI of vedolizumab within the memory CD4+ T cells from the unblocked samples. Receptor expression (RE) was calculated as percent change of MFI from baseline for the vedolizumab stain.

[1] = 300 mg Fasted once daily, Day 1
[2] = 300 mg Fasted once daily, Day 14

For `CC(C)C[C@@H]1NC(=O)[C@H](C(C)O)NC(=O)[C@H](CC(=O)O)NC(=O)[C@H](CO)NC(=O)[C@H](CCCNC(=N)N)N(C)C(=O)c2ccccc2CSC(C)(C)[C@@H](C(=O)N[C@@H](Cc2ccc(C(C)(C)C)cc2)C(=O)N[C@@H](CCC(=O)O)CC(=O)N[C@H](CCCCNC(=O)COCC(=O)NCCCC[C@@H](NC(=O)C[C@H](CCC(=O)O)NC(=O)[C@H](Cc2ccc(C(C)(C)C)cc2)NC(=O)[C@H]2NC(=O)[C@H](CC(C)C)NC(=O)[C@H](C(C)O)NC(=O)[C@H](CC(=O)O)NC(=O)[C@H](CO)NC(=O)[C@H](CCCNC(=N)N)N(C)C(=O)c3ccccc3CSC2(C)C)C(=O)O)C(=O)O)NC1=O` (stereo partly drawn) [Compound A, ((2-Benzyl)-(N-Me-R)-Ser-Asp-Thr-Leu-Pen-(Phe(4-tBlu))-(β-homo-Glu)-(D-Lys)-OH)2 (SEQ ID NO: 5) and linker-DIG diglycolic acid] (I: [NMeR]SD[Thr(3ξ)]L[Pen][Phe(4-tBu)][β3hE][dK]-OH / II: [NMeR]SD[Thr(3ξ)]L[Pen][Phe(4-tBu)][β3hE][dK]-OH; linker I:9-II:9 via Diglycolyl; linker I:N-I:6, II:N-II:6 via X1), the “Average RE (%)” value (100 mg Fed once daily, Day 1) was −12.3 ± 6.6%, the “Average RO (%)” value (100 mg Fed once daily, Day 1) was 30.0 ± 7.7% and the “REmax (%)” value (100 mg Fed once daily, Day 1) was −17.4 ± 7.5%. For the same molecule, the “ROmax (%)” value (100 mg Fed once daily, Day 1) was 46.8 ± 11.2%, the “Tmax for RE” value (100 mg Fed once daily, Day 1) was 14.0 ± 4.2 h and the “Tmax for RO” value (100 mg Fed once daily, Day 1) was 6.0 ± 3.7 h. For the same molecule, the “Average RE (%)” value (100 mg Fed once daily, Day 14) was −23.8 ± 6.9%, the “Average RO (%)” value (100 mg Fed once daily, Day 14) was 40.5 ± 7.5% and the “REmax (%)” value (100 mg Fed once daily, Day 14) was −29.1 ± 7.2%. The “ROmax (%)” value (100 mg Fed once daily, Day 14) was 55.5 ± 8.82%, the “Tmax for RE” value (100 mg Fed once daily, Day 14) was 12.0 ± 0 h and the “Tmax for RO” value (100 mg Fed once daily, Day 14) was 5.0 ± 2.8 h. The “Average RE (%)” value [1] was −25.1 ± 4.4%, the “Average RO (%)” value [1] was 53.9 ± 6.5% and the “REmax (%)” value [1] was −33.1 ± 5.2%. For the same molecule, the “ROmax (%)” value [1] was 77.8 ± 5.13%, the “Tmax for RE” value [1] was 12.0 ± 0 h and the “Tmax for RO” value [1] was 4.0 ± 0 h. The “ROmax (%)” value (300 mg Fasted once daily, Day 1, listed as COMPOUND A) was 77.8%, the “Average RE (%)” value [2] was −37.7 ± 5.2% and the “Average RO (%)” value [2] was 61.1 ± 6.0%. For the same molecule, the “REmax (%)” value [2] was −41.5 ± 5.9%, the “ROmax (%)” value [2] was 79.7 ± 5.40% and the “Tmax for RE” value [2] was 6.0 ± 3.7 h. For the same molecule, the “Tmax for RO” value [2] was 4.0 ± 0 h, the “ROmax (%)” value (300 mg Fasted once daily, Day 14, listed as COMPOUND A) was 79.7% and the “Average RE (%)” value (300 mg Fed once daily, Day 1) was −20.1 ± 3.4%. For the same molecule, the “Average RO (%)” value (300 mg Fed once daily, Day 1) was 47.2 ± 7.5%, the “REmax (%)” value (300 mg Fed once daily, Day 1) was −28.4 ± 4.4% and the “ROmax (%)” value (300 mg Fed once daily, Day 1) was 70.4 ± 7.39%. For the same molecule, the “Tmax for RE” value (300 mg Fed once daily, Day 1) was 12.0 ± 0 h, the “Tmax for RO” value (300 mg Fed once daily, Day 1) was 4.0 ± 0 h and the “Average RE (%)” value (300 mg Fed once daily, Day 14) was −31.7 ± 4.0%. The “Average RO (%)” value (300 mg Fed once daily, Day 14) was 57.8 ± 3.9%, the “REmax (%)” value (300 mg Fed once daily, Day 14) was −37.2 ± 4.7% and the “ROmax (%)” value (300 mg Fed once daily, Day 14) was 78.9 ± 5.89%. For the same molecule, the “Tmax for RE” value (300 mg Fed once daily, Day 14) was 12.0 ± 0 h, the “Tmax for RO” value (300 mg Fed once daily, Day 14) was 4.0 ± 0 h and the “peak percent receptor occupancy” value (300 mg within 30 minutes following a high fat meal) was 61.4%. For the same molecule, the “Average RE (%)” value (450 mg BID, Day 1) was −33.4 ± 4.4%, the “Average RO (%)” value (450 mg BID, Day 1) was 76.4 ± 8.4% and the “REmax (%)” value (450 mg BID, Day 1) was −42.6 ± 4.6%. For the same molecule, the “ROmax (%)” value (450 mg BID, Day 1) was 86.5% and 86.5 ± 4.11%, the “Tmax for RE” value (450 mg BID, Day 1) was 19 ± 4.7 h and the “Tmax for RO” value (450 mg BID, Day 1) was 16 ± 6.2 h. The “Average RE (%)” value (450 mg BID, Day 5, N = 7) was −44.3 ± 4.2%, the “REmax (%)” value (450 mg BID, Day 5, N = 7) was −47.3 ± 4.3% and the “ROmax (%)” value (450 mg BID, Day 5, N = 7) was 91.9% and 91.9 ± 3.42%. For the same molecule, the “Tmax for RE” value (450 mg BID, Day 5, N = 7) was 5.6 ± 5.1 h, the “Tmax for RO” value (450 mg BID, Day 5, N = 7) was 2.3 ± 1.6 h and the “Average RO (%)” value (450 mg BID, Day 5, N = 7, 24-hour AUEC) was 85.3% and 85.3 ± 7.3%. The receptor occupancy at 450 mg (450 mg twice daily, read-out: trough receptor occupancy) was about 79.2%, the “Average RE (%)” value (900 mg QD, Day 1) was −38.3 ± 4.9% and the “Average RO (%)” value (900 mg QD, Day 1) was 80.7 ± 6.7%. The “REmax (%)” value (900 mg QD, Day 1) was −47.3 ± 5.0%, the “ROmax (%)” value (900 mg QD, Day 1) was 94.5% and 94.5 ± 2.61% and the “Tmax for RE” value (900 mg QD, Day 1) was 13 ± 1.4 h. The “Tmax for RO” value (900 mg QD, Day 1) was 5.4 ± 3.9 h, the “Average RE (%)” value (900 mg QD, Day 5) was −44.6 ± 6.3% and the “REmax (%)” value (900 mg QD, Day 5) was −50.1 ± 5.3%. The “ROmax (%)” value (900 mg QD, Day 5) was 94.9% and 94.9 ± 1.97% and the “Tmax for RE” value (900 mg QD, Day 5) was 11 ± 3.9 h.
